The record followed here is ChEMBL document CHEMBL1127119, “Pneumocandin antifungal lipopeptides. The phenolic hydroxyl is required for 1,3--glucan synthesis inhibition” (Bioorg Med Chem Lett, 1993).

The structures appear in SMILES notation. ≈ marks a conversion by molar mass, not a printed value. Numbered stars: 1 amine (or outer) side, 2 acyl side, 3 side chain; on linkers, the order of the positions; unused ones are H or OH. Bridge positions count the residues as written; N and C are the ends. Square brackets hold non-standard residues; d marks the D form. Peptide text beside a SMILES is read from it. * marks the point of attachment. Orn(4R-OH,5R-OH) = O=C([C@H](C[C@@H](O)[C@@H](O)N[*:3])N[*:1])[*:2]; X3 = O=C([C@@H](N[*:1])[C@H](O)[C@@H](O)c1ccc(OP(=O)(O)O)cc1)[*:2]; hTyr(3S-OH,4S-OH) = N[C@H](C(=O)O)[C@H](O)[C@@H](O)c1ccc(O)cc1; X4 = O=C([C@@H](N[*:1])[C@H](O)[C@H](O)c1ccc(O)cc1)[*:2]; X2 = O=C([C@@H](N[*:1])[C@H](O)[C@@H](O)c1ccccc1)[*:2]; X6 = O=C(Oc1ccc(O)cc1)[C@@H](O)[C@H](N[*:1])C(=O)[*:2]; hTyr(3R-OH) = N[C@H](C(=O)O)[C@H](O)Cc1ccc(O)cc1; Gln(3R-OH) = NC(=O)C[C@@H](O)[C@H](N)C(=O)O; X5 = O=C([C@@H](N[*:1])[C@H](O)CO)[*:2]; Pro(3S-OH) = O=C(O)[C@H]1NCC[C@@H]1O; Hyp = O=C(O)[C@@H]1C[C@@H](O)CN1; X1 = CCC(C)CC(C)CCCCCCCCC(=O)*

The subject of test [1] is Candida albicans. Description: The compound was tested for inhibition of 1,3-beta-glucan synthesis in a preparation containing membranes from Candida albicans (MY1208). In kind it is functional.
In test [2] the test system is Candida albicans. Nature of the test: The compound was tested for its antifungal activity against Candida albicans (MY1055). The format is functional.
Test [3] has as its system Candida tropicalis. Nature of the test: The compound was tested for its antifungal activity against Candida tropicalis (MY1012). The format is functional.
Test [4] has as its system Candida parapsilosis. Description: The compound was tested for its antifungal activity against Candida parapsilosis (MY1010). In kind it is functional. The conditions noted are these: Lodderomyces parapsilosis.
Test [5] relates to Mus musculus. Nature of the test: Minimum effective dose required for 99.9% reduction of viable CFUs recoverable from mouse kidneys infected with Candida albicans (MY1208) using in vivo Target Organ Kidney Assay (TOKA). The format is functional.
Test [6] is filed under the species Mus musculus. Nature of the test: Minimum effective dose required for 99.9% reduction of viable CFUs recoverable from mouse kidneys compared with sham-treated controls. The format is functional, Kidney.

In turn, `CCC(C)CC(C)CCCCCCCCC(=O)N[C@H]1C[C@@H](O)[C@@H](O)NC(=O)[C@@H]2[C@@H](O)CCN2C(=O)[C@H]([C@H](O)CC(N)=O)NC(=O)[C@H]([C@H](O)[C@@H](O)c2ccccc2)NC(=O)[C@@H]2C[C@@H](O)CN2C(=O)[C@H]([C@@H](C)O)NC1=O` (stereo partly drawn) (X1-[Orn(4R-OH,5R-OH)]T[Hyp][X2][Gln(3R-OH)][Pro(3S-OH)]; lactam 1-C) displayed a concentration for half-maximal inhibition (IC50) in test [1] of more than 10000 nM. Also, the values for the MFC in test [2], in test [3] and in test [4] were 4 µg/mL (≈ 3.81 µM), 1 µg/mL (≈ 0.953 µM) and more than 128 µg/mL, respectively. The MED99.9 in test [5] is more than 6 mg/kg.
For `CCC(C)CC(C)CCCCCCCCC(=O)N[C@H]1C[C@@H](O)[C@@H](O)NC(=O)[C@@H]2[C@@H](O)CCN2C(=O)[C@H]([C@H](O)CC(N)=O)NC(=O)[C@H]([C@H](O)[C@@H](O)c2ccc(OP(=O)(O)O)cc2)NC(=O)[C@@H]2C[C@@H](O)CN2C(=O)[C@H]([C@@H](C)O)NC1=O` (stereo partly drawn) (X1-[Orn(4R-OH,5R-OH)]T[Hyp][X3][Gln(3R-OH)][Pro(3S-OH)]; lactam 1-C), in that order: more than 10000 nM, 2 µg/mL (≈ 1.75 µM), 4 µg/mL (≈ 3.49 µM), 32 µg/mL (≈ 27.9 µM) and 6 mg/kg.
`CCC(C)CC(C)CCCCCCCCC(=O)N[C@H]1C[C@@H](O)[C@@H](O)NC(=O)[C@@H]2[C@@H](O)CCN2C(=O)[C@H]([C@H](O)CC(N)=O)NC(=O)[C@H]([C@H](O)[C@H](O)c2ccc(O)cc2)NC(=O)[C@@H]2C[C@@H](O)CN2C(=O)[C@H]([C@@H](C)O)NC1=O` (stereo partly drawn) (X1-[Orn(4R-OH,5R-OH)]T[Hyp][X4][Gln(3R-OH)][Pro(3S-OH)]; lactam 1-C): the midpoint of inhibition in test [1], the IC50, lay at 5000 nM. The MFC in test [2] is 8 µg/mL (≈ 7.51 µM); in test [3], 64 µg/mL (≈ 60.1 µM); in test [4] it was more than 128 µg/mL. In test [6], this compound showed an MED99.9 of more than 6 mg/kg.
Turning to `CCC(C)CC(C)CCCCCCCCC(=O)N[C@H]1C[C@@H](O)[C@@H](O)NC(=O)[C@@H]2[C@@H](O)CCN2C(=O)[C@H]([C@H](O)CC(N)=O)NC(=O)[C@H]([C@H](O)CO)NC(=O)[C@@H]2C[C@@H](O)CN2C(=O)[C@H]([C@@H](C)O)NC1=O` (stereo partly drawn) (X1-[Orn(4R-OH,5R-OH)]T[Hyp][X5][Gln(3R-OH)][Pro(3S-OH)]; lactam 1-C), the IC50 in test [1] is more than 1000 nM. Also, the minimal fungicidal concentration (MFC) in test [2] worked out at 32 µg/mL (≈ 32.9 µM); in test [3], 8 µg/mL (≈ 8.22 µM); in test [4] it was 8 µg/mL (≈ 8.22 µM).
In test [1], `CCC(C)CC(C)CCCCCCCCC(=O)N[C@H]1C[C@@H](O)[C@@H](O)NC(=O)[C@@H]2[C@@H](O)CCN2C(=O)[C@H]([C@H](O)CC(N)=O)NC(=O)[C@H]([C@H](O)C(=O)Oc2ccc(O)cc2)NC(=O)[C@@H]2C[C@@H](O)CN2C(=O)[C@H]([C@@H](C)O)NC1=O` (stereo partly drawn) (X1-[Orn(4R-OH,5R-OH)]T[Hyp][X6][Gln(3R-OH)][Pro(3S-OH)]; lactam 1-C) gave an IC50 of more than 1000 nM. The values for the MFC in test [2], in test [3] and in test [4] were 32 µg/mL (≈ 29.7 µM), 8 µg/mL (≈ 7.41 µM) and 1 µg/mL (≈ 0.927 µM), respectively.
In turn, `CCC(C)CC(C)CCCCCCCCC(=O)N[C@H]1C[C@@H](O)[C@@H](O)NC(=O)[C@@H]2[C@@H](O)CCN2C(=O)[C@H]([C@H](O)CC(N)=O)NC(=O)[C@H]([C@H](O)Cc2ccc(O)cc2)NC(=O)[C@@H]2C[C@@H](O)CN2C(=O)[C@H]([C@@H](C)O)NC1=O` (stereo partly drawn) (X1-[Orn(4R-OH,5R-OH)]T[Hyp][hTyr(3R-OH)][Gln(3R-OH)][Pro(3S-OH)]; lactam 1-C) displayed an IC50 in test [1] of 40 nM. The MFC is 0.25 µg/mL (≈ 0.238 µM) in test [2], less than 0.06 µg/mL in test [3] and 4 µg/mL (≈ 3.81 µM) in test [4]. This compound also returned an MED99.9 in test [6] of 3 mg/kg.
Consider `CCC(C)CC(C)CCCCCCCCC(=O)N[C@H]1C[C@@H](O)[C@@H](O)NC(=O)[C@@H]2[C@@H](O)CCN2C(=O)[C@H]([C@H](O)CC(N)=O)NC(=O)[C@H]([C@H](O)[C@@H](O)c2ccc(O)cc2)NC(=O)[C@@H]2C[C@@H](O)CN2C(=O)[C@H]([C@@H](C)O)NC1=O` (stereo partly drawn) (X1-[Orn(4R-OH,5R-OH)]T[Hyp][hTyr(3S-OH,4S-OH)][Gln(3R-OH)][Pro(3S-OH)]; lactam 1-C), for which the IC50 in test [1] stood at 70 nM. For the same compound, the figures for the MFC in test [2], in test [3] and in test [4] were 0.25 µg/mL (≈ 0.235 µM), 0.06 µg/mL (≈ 0.0563 µM) and 4 µg/mL (≈ 3.76 µM), respectively. Moreover, in test [5], the MED99.9 is 6 mg/kg.

As usually defined, the IC50 is the concentration that inhibits the measured activity by half. By MFC is commonly meant the smallest concentration meeting the test's criterion for killing the fungus. High values mean less potent killing, low ones more potent killing.
